Measured values taken from paper PMC5775428, “Towards an experimental classification system for membrane active peptides” (Scientific Reports, 2018).
Where two headings read alike, the source gives them in different places. No end group written: not given here.

What was measured:
[1] = system: Xanthomonas campestris; details: for Minimum inhibitory concentration, Average: average of triplicates
Summary of the method: (§1)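 Peptides were serially diluted from 256 down to 0.5 μM and incubated with the bacterial strains according to CLSI M7-A10. Wells were then inspected by optical microscopy, and MIC assigned where no cells appeared.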

[2] = system: Pseudomonas syringae pv. tabaci
Summary of the method: as §1

[3] = system: Pseudomonas aeruginosa
Summary of the method: as §1

[4] = system: Escherichia coli
Summary of the method: as §1

[5] = system: Bacillus cereus
Summary of the method: as §1

[6] = system: Candida albicans
Summary of the method: (§2)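 MICs determined per CLSI M7-A10 (bacteria) and M27-A3 (yeasts) protocols, peptides tested at 0.5 to 256 μM. MIC taken as the lowest concentration with no cells seen by optical microscopy; three biological repeats with 2 technical replicates each.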

[7] = system: Staphylococcus aureus
Summary of the method: as §1

[8] = system: Erwinia carotovora
Summary of the method: as §1

[9] = system: Bacillus subtilis
Summary of the method: as §1

[10] = system: Cryptococcus neoformans
Summary of the method: as §2

[11] = Staphylococcus aureus, CLSI M7-A10, triplicate 1
[12] = Staphylococcus aureus, average of triplicates
[13] = Staphylococcus aureus, triplicate 2
[14] = Staphylococcus aureus, triplicate 3
[15] = Bacillus subtilis, CLSI M7-A10, triplicate 1
[16] = Bacillus subtilis, average of triplicates
[17] = Bacillus subtilis, triplicate 2
[18] = Bacillus subtilis, triplicate 3
[19] = Cryptococcus neoformans, CLSI M27-A3, triplicate 1
[20] = Cryptococcus neoformans, average of triplicates
[21] = Cryptococcus neoformans, triplicate 2
[22] = Cryptococcus neoformans, triplicate 3

IKLRNVLKYLFRIDVIKEDIL [Tc03]
Minimum inhibitory concentration ([1]; CLSI M7-A10, triplicate 1): 64 µM | Minimum inhibitory concentration, Average [1]: 64.0 µM | Minimum inhibitory concentration ([1]; triplicate 2): 64 µM | Minimum inhibitory concentration ([1]; triplicate 3): 64 µM | Minimum inhibitory concentration ([2]; Pseudomonas syringae pv. tabaci, CLSI M7-A10, triplicate 1): 32 µM | Minimum inhibitory concentration, Average ([2]; Pseudomonas syringae pv. tabaci, average of triplicates): 32.0 µM | Minimum inhibitory concentration ([2]; Pseudomonas syringae pv. tabaci, triplicate 2): 32 µM | Minimum inhibitory concentration ([2]; Pseudomonas syringae pv. tabaci, triplicate 3): 32 µM | Minimum inhibitory concentration ([3]; Pseudomonas aeruginosa, CLSI M7-A10, triplicate 1): 512 µM | Minimum inhibitory concentration, Average ([3]; Pseudomonas aeruginosa, average of triplicates): 512.0 µM | Minimum inhibitory concentration ([3]; Pseudomonas aeruginosa, triplicate 2): 512 µM | Minimum inhibitory concentration ([3]; Pseudomonas aeruginosa, triplicate 3): 512 µM | Minimum inhibitory concentration ([4]; Escherichia coli, CLSI M7-A10, triplicate 1): 64 µM | Minimum inhibitory concentration, Average ([4]; Escherichia coli, average of triplicates): 64.0 µM | Minimum inhibitory concentration ([4]; Escherichia coli, triplicate 2): 64 µM | Minimum inhibitory concentration ([4]; Escherichia coli, triplicate 3): 64 µM | Minimum inhibitory concentration ([5]; Bacillus cereus, CLSI M7-A10, triplicate 1): 128 µM | Minimum inhibitory concentration, Average ([5]; Bacillus cereus, average of triplicates): 128.0 µM | Minimum inhibitory concentration ([5]; Bacillus cereus, triplicate 2): 128 µM | Minimum inhibitory concentration ([5]; Bacillus cereus, triplicate 3): 128 µM | Minimum inhibitory concentration, Average ([6]; Candida albicans, average of triplicates): 512.0 µM | Minimum inhibitory concentration ([6]; Candida albicans, triplicate 2): 512 µM | Minimum inhibitory concentration ([6]; Candida albicans, triplicate 3): 512 µM | Minimum inhibitory concentration [7, 11]: 512 µM | Minimum inhibitory concentration, Average [7, 12]: 512.0 µM | Minimum inhibitory concentration [7, 13]: 512 µM | Minimum inhibitory concentration [7, 14]: 512 µM | Minimum inhibitory concentration ([8]; Erwinia carotovora, CLSI M7-A10, triplicate 1): 32 µM | Minimum inhibitory concentration, Average ([8]; Erwinia carotovora, average of triplicates): 32.0 µM | Minimum inhibitory concentration ([8]; Erwinia carotovora, triplicate 2): 32 µM | Minimum inhibitory concentration ([8]; Erwinia carotovora, triplicate 3): 32 µM | Minimum inhibitory concentration [9, 15]: 16 µM | Minimum inhibitory concentration, Average [9, 16]: 16.0 µM | Minimum inhibitory concentration [9, 17]: 16 µM | Minimum inhibitory concentration [9, 18]: 16 µM | Minimum inhibitory concentration [10, 19]: 512 µM | Minimum inhibitory concentration, Average [10, 20]: 512.0 µM | Minimum inhibitory concentration [10, 21]: 512 µM | Minimum inhibitory concentration [10, 22]: 512 µM

GLYNFIKVLGRTVFGLYKQF [At04]
Minimum inhibitory concentration ([1]; CLSI M7-A10, triplicate 1): 512 µM | Minimum inhibitory concentration, Average [1]: 512.0 µM | Minimum inhibitory concentration ([1]; triplicate 2): 512 µM | Minimum inhibitory concentration ([1]; triplicate 3): 512 µM | Minimum inhibitory concentration [2]: 512 µM | Minimum inhibitory concentration, Average [2]: 512.0 µM | Minimum inhibitory concentration [3]: 512 µM | Minimum inhibitory concentration, Average [3]: 512.0 µM | Minimum inhibitory concentration [4]: 512 µM | Minimum inhibitory concentration, Average [4]: 512.0 µM | Minimum inhibitory concentration [5]: 512 µM | Minimum inhibitory concentration, Average [5]: 512.0 µM | Minimum inhibitory concentration [6]: 512 µM | Minimum inhibitory concentration, Average [6]: 512.0 µM | Minimum inhibitory concentration [7, 11]: 16 µM | Minimum inhibitory concentration, Average [7, 12]: 16.0 µM | Minimum inhibitory concentration [7, 13]: 16 µM | Minimum inhibitory concentration [7, 14]: 16 µM | Minimum inhibitory concentration [8]: 512 µM | Minimum inhibitory concentration, Average [8]: 512.0 µM | Minimum inhibitory concentration [9, 15]: 256 µM | Minimum inhibitory concentration, Average [9, 16]: 256.0 µM | Minimum inhibitory concentration [9, 17]: 256 µM | Minimum inhibitory concentration [9, 18]: 256 µM | Minimum inhibitory concentration [10, 19]: 64 µM | Minimum inhibitory concentration, Average [10, 20]: 64.0 µM | Minimum inhibitory concentration [10, 21]: 64 µM | Minimum inhibitory concentration [10, 22]: 64 µM

GLWSTIKQKGKEAAIAAAKAAGQAALGAL-NH2 [DS01, Dermaseptin DS01, reference compound]
Minimum inhibitory concentration, Average [1]: 0.5 µM | Minimum inhibitory concentration, Average [2]: 1.0 µM | Minimum inhibitory concentration, Average [3]: 2.0 µM | Minimum inhibitory concentration, Average [4]: 1.0 µM | Minimum inhibitory concentration, Average [5]: 16.0 µM | Minimum inhibitory concentration, Average [6]: 4.0 µM | Minimum inhibitory concentration, Average [7]: 8.0 µM | Minimum inhibitory concentration, Average [8]: 0.5 µM | Minimum inhibitory concentration, Average [9]: 1.0 µM | Minimum inhibitory concentration, Average [10]: 8.0 µM
